Earlier results on one compound are cited in patent US20220313614A1, “EN[…] […] AND METHODS OF PREPARATION THEREOF” (Altria Client Services LLC, priority 2021, published 2022).

The conditions of this data set: free base (non-protonated).

Consider `CN1CCCC1c1cccnc1` (stereo not shown) [Free-base nicotine, 3-(1-methyl-2-pyrrolidinyl) pyridine], for which the pKa value result was “about 8”.
